For the assay, the system named is T1, MpIspS.
T1 construct: gene IspS
The note with it: 50 mM MOPS pH 6.0, 5 mM Mn^2+, 50 °C, 10 min; fit below 15 mM DMAPP.

Structures are written as SMILES.

As usually defined, the Km is the substrate concentration at which the rate is half of its maximum. `CC(C)=CCOP(=O)(O)OP(=O)(O)O` [DMAPP]: the Michaelis-Menten constant (Km) came to 8.11 mM.
